Measured values: US20250163061A1 (Bala Therapeutics, Inc., priority 2021, published 2025)

Legend:
Format in all cases: cell-based
MV4-11 = MV4-11 cellular growth inhibition assay (CellTiter-Glo); details: Homo sapiens, 168 h, MV4-11 cells, 7 days of incubation
Experimental: (§1) HEK293 (Institute of Cytology Russian Academy of Science), MV4-11 (ATCC, CRL-9591), MOLM-13 (AcceGen, ABC-TC517S) were seeded at a density of 500 cells per well (HEK293) and 2000 cells per well (MV4-11, MOLM-13) in a 384-well clear bottom plate (Greiner Cat #781090) in 45 μl total volume of DMEM (PanEco, Cat #C420, Russia) or RPMI (PanEco, Cat #C330, Russia) with 10% FBS (HyClone Cat #SV30160.03). HEK293 were allowed to adhere overnight at 37° C., 5% CO2. 500× compounds solutions in DMSO (Sigma Cat #D2650) were prepared into Cmpnds plate (Diamond Well Plate, Axigen, Cat #P-384-120SQ-C-S) and DMSO only control was included. 1 μl of 500× compounds (Cmpnds plate) was added to 49 μl of culture medium into Dilution plate (Diamond Well Plate, Axigen, Cat #P-384-120SQ-C-S), mixed and then 5 μl of 10× compounds solutions were transferred to cells followed by centrifugation at 100 g for 1 min. Final DMSO concentration was 0.2%. After 3 days of incubation, 10 μl of 1× compounds were added to cells. After 7 days of incubation, 12 μl of CellTiter-Glo (Promega, CAT #G7572) were added to the cells, plate was centrifuged at 100 g for 1 min and luminescence signal was measured using Microplate Reader (CLARIOStar).

[1] = HEK293 cellular growth inhibition assay (CellTiter-Glo); details: human, HEK293 cells, 7 days of incubation
Experimental: as §1

MOLM-13 = MOLM-13 cellular growth inhibition assay (CellTiter-Glo); details: Homo sapiens, 168 h, MOLM-13 cells, 7 days of incubation
Experimental: as §1

| SMILES | CC50 (MV4-11) | CC50 at 7 days [1] | CC50 (MOLM-13) |
| --- | --- | --- | --- |
| Cc1c(CN2CCC3(CC2)CN(c2ncnc4ccc(CC(F)(F)F)cc24)C3)ccc2c1cc(C#N)n2CC1CCNC(=O)CO1 (centres unmarked) [Compound 2, 4-Methyl-1-[(3-oxo-1,4-oxazepan-7-yl)methyl]-5-[[2-[6-(2,2,2-trifluoroethyl)quinazolin-4-yl]-2,7-diazaspiro[3.5]nonan-7-yl]methyl]indole-2-carbonitrile] | 0.1 to 0.5 µM | 2 to 5 µM | 1 to 5 µM |
| Cc1c(CN2CCC3(CC2)CN(c2ncnc4ccc(CC(F)(F)F)cc24)C3)ccc2c1cc(C#N)n2CC1CNC(=O)NC1 [Compound 4, 4-Methyl-1-[(2-oxohexahydropyrimidin-5-yl)methyl]-5-[[2-[6-(2,2,2-trifluoroethyl)quinazolin-4-yl]-2,7-diazaspiro[3.5]nonan-7-yl]methyl]indole-2-carbonitrile] | 0.1 to 0.5 µM |  | 0.5 to 1 µM |
| Cc1c(CN2CCC3(CC2)CN(c2ncnc4ccc(CC(F)(F)F)cc24)C3)ccc2c1cc(C#N)n2CC1CCNC(=O)CC1 (centres unmarked) [Compound 5, 4-Methyl-1-[(7-oxoazepan-4-yl)methyl]-5-[[2-[6-(2,2,2-trifluoroethyl)quinazolin-4-yl]-2,7-diazaspiro[3.5]nonan-7-yl]methyl]indole-2-carbonitrile] | 0.1 to 0.5 µM | ≤ 2 µM | 0.5 to 1 µM |
| Cc1c(CN2CCC3(CC2)CN(c2ncnc4ccc(CC(F)(F)F)cc24)C3)ccc2c1cc(C#N)n2CC1CNC(=O)C(C)O1 (centres unmarked) [Compound 7, 4-Methyl-1-[(6-methyl-5-oxo-morpholin-2-yl)methyl]-5-[[2-[6-(2,2,2-trifluoroethyl)quinazolin-4-yl]-2,7-diazaspiro[3.5]nonan-7-yl]methyl]indole-2-carbonitrile] | ≤ 0.1 µM | 2 to 5 µM | 0.1 to 0.5 µM |
| Cc1c(CN2CCC3(CC2)CN(c2ncnc4ccc(CC(F)(F)F)c(F)c24)C3)ccc2c1cc(C#N)n2CC1CNC(=O)CO1 (centres unmarked) [Compound 12, 5-[[2-[5-Fluoro-6-(2,2,2-trifluoroethyl)quinazolin-4-yl]-2,7-diazaspiro[3.5]nonan-7-yl]methyl]-4-methyl-1-[(5-oxomorpholin-2-yl)methyl]indole-2-carbonitrile] | 0.1 to 0.5 µM | ≤ 2 µM | 0.5 to 1 µM |
| Cc1c(CN2CCC3(CC2)CN(c2ncnc4ccc(CC(F)(F)F)cc24)C3)ccc2c1cc(C#N)n2C(C)CCN1CCN(S(C)(=O)=O)CC1 (centres unmarked) [Compound 13, 4-Methyl-1-{1-methyl-3-[4-(methylsulfonyl)piperazin-1-yl]propyl}-5-({2-[6-(2,2,2-trifluoroethyl)quinazolin-4-yl]-2,7-diazaspiro[3.5]non-7-yl}methyl)-1H-indole-2-carbonitrile] | ≤ 0.1 µM | 5 to 10 µM | 0.5 to 1 µM |
| Cc1c(CN2CCC3(CC2)CN(c2ncnc4ccc(CC(F)(F)F)cc24)C3)ccc2c1cc(C#N)n2Cc1ccc(=O)[nH]c1 [Compound 14, 4-Methyl-1-[(6-oxo-1,6-dihydropyridin-3-yl)methyl]-5-({2-[6-(2,2,2-trifluoroethyl)quinazolin-4-yl]-2,7-diazaspiro[3.5]non-7-yl}methyl)-1H-indole-2-carbonitrile] | ≤ 0.1 µM | ≤ 2 µM | ≤ 0.1 µM |
| COc1cc2c(cc1CN1CCC3(CC1)CN(c1ncnc4ccc(CC(F)(F)F)cc14)C3)cc(C#N)n2CC(C)N1CCN(S(C)(=O)=O)CC1 (centres unmarked) [Compound 20, 6-Methoxy-1-{2-[4-(methylsulfonyl)piperazin-1-yl]propyl}-5-({2-[6-(2,2,2-trifluoroethyl)quinazolin-4-yl]-2,7-diazaspiro[3.5]non-7-yl}methyl)-1H-indole-2-carbonitrile] | 0.1 to 0.5 µM | 2 to 5 µM | 1 to 5 µM |
| Cc1c(CN2CCC3(CC2)CN(c2ncnc4ccc(CC(F)(F)F)cc24)C3)ccc2c1cc(C#N)n2CC1CCNC(=O)C1 (centres unmarked) [Compound 22, 4-Methyl-1-[(2-oxopiperidin-4-yl)methyl]-5-({2-[6-(2,2,2-trifluoroethyl)quinazolin-4-yl]-2,7-diazaspiro[3.5]non-7-yl}methyl)-1H-indole-2-carbonitrile] | 0.1 to 0.5 µM | 2 to 5 µM | 0.5 to 1 µM |
